Experimental data: publication PMC4496781, “Functional Roles of Aromatic Residues and Helices of Papiliocin in its Antimicrobial and Anti-inflammatory Activities” (Scientific Reports, 2015)
Like-named read-outs stand apart in the source and are kept apart here. Ends that are not written are not given here.

Columns and labels:
[1] = tested on: gram-negative bacteria (E. coli, S. typhimurium, P. aeruginosa); conditions: for GM of the MIC values, gram-negative: 16 h; for Therapeutic Index (MHC/GM), gram-negative: ratio MHC (μM) over GM of MIC (μM)
Procedure: (§1) This property is assessed by the therapeutic index which can be defined as a ratio of the […] against human hRBCs to the MIC against bacterial cells.
(§2) MICs of the peptides against six standard bacteria and four multidrug-resistant bacteria were determined by a broth microdilution assay as described previously. […] Cytotoxicities against mammalian cells were measured against human RBCs, mouse macrophage-derived RAW264.7 cells, and fibroblast NIH-3T3 cells. The anti-inflammatory activities of the peptides were examined by inhibiting nitrite production in LPS-stimulated RAW264.7 cells.

[2] = tested on: gram-positive bacteria (B. subtilis, E. faecalis, S. aureus); conditions: for GM of the MIC values, gram-positive: 16 h; for Therapeutic Index (MHC/GM), gram-positive: ratio MHC (μM) over GM of MIC (μM)
Procedure: as §1, §2

Bacillus subtilis = conditions: 16 h
Procedure: as §2

Staphylococcus aureus = conditions: 16 h
Procedure: as §2

Eenterococcus faecalis = conditions: E, 16 h
Procedure: as §2

Escherichia coli = conditions: 16 h
Procedure: as §2

Salmonella typhimurium = conditions: murium, 16 h
Procedure: as §2

Pseudomonas aeruginosa = conditions: 16 h
Procedure: as §2

MDREC 1229(R) = conditions: 16 h
Procedure: (§3) We examined the antimicrobial activities of the peptides against multidrug-resistant bacterial strains, including four gram-negative species (S. typhimurium 8009(R), E. coli 1229(R), P. aeruginosa 2095(R), and A. baumannii 12035(R); Table 3).
as §2

MDRAB 12035(R) = conditions: broth microdilution, 16 h; unit not given
Procedure: as §3, §2

MDRST 8009(R) = conditions: broth microdilution, 16 h; unit not given
Procedure: as §3, §2

MDRPA 2095(R) = conditions: 16 h
Procedure: as §3, §2

[3] = tested on: RAW264.7 macrophage cells; experiment: Cytotoxicity, MTT; assay type: cell-based, mouse
Procedure: We examined the cytotoxicity against human erythrocytes. […] Next, we examined the cytotoxicity of the peptides against RAW264.7 macrophage cells. We assessed the effects of the peptides on cell growth by measuring mitochondrial reduction of MTT to a colored product in live cells. […] On the other hand, PapC produced high cytotoxicity against RAW264.7 cells, even at low concentrations. […] In case of PapN-2A, Pap-5A, and Pap-2A5A, the cell survival rates at a peptide concentration of 100 μM were approximately 90% or more. Thus, Trp^2 and Phe^5 are important for the cytotoxic activity of papiliocin toward RAW264.7 cells.
as §2

Substance	GM of the MIC values, gram-negative [1]	Therapeutic Index (MHC/GM), gram-negative [1]	GM of the MIC values, gram-positive [2]	Therapeutic Index (MHC/GM), gram-positive [2]	MIC, Bacillus subtilis (Bacillus subtilis)	MIC, Staphylococcus aureus (Staphylococcus aureus)	MIC, Eenterococcus faecalis (Eenterococcus faecalis)	MIC, Escherichia coli (Escherichia coli)	MIC, Salmonella typhimurium (Salmonella typhimurium)	MIC, Pseudomonas aeruginosa (Pseudomonas aeruginosa)	MIC, MDREC 1229(R) (MDREC 1229(R))	MIC, MDRAB 12035(R) (MDRAB 12035(R))	MIC, MDRST 8009(R) (MDRST 8009(R))	MIC, MDRPA 2095(R) (MDRPA 2095(R))	Therapeutic Index (MHC/GM), gram-positive ([2]; listed as papiliocin)	cytotoxicity at the peptide's MIC [3]
RAKIAKKIEKVGRNVRDGIIKA-NH2 [PapN-2A5A]	4.67 µM	42.9	213 µM	0.939	>128 µM	128 µM	>128 µM	2.00 µM	4.00 µM	8.00 µM	4.00 µM	32.0 µM	8.00 µM	16.0 µM	–	–
RAKIAKKIEKVGRNVRDGIIKAGPAVAVVGQAATVVK-NH2 [Papiliocin-2A5A]	0.667 µM	–	213 µM	0.939	128 µM	>128 µM	>128 µM	0.500 µM	1.00 µM	0.500 µM	2.00 µM	0.500 µM	4.00 µM	1.00 µM	–	–
RAKIFKKIEKVGRNVRDGIIKA-NH2 [PapN-2A]	3.33 µM	60.0	64.0 µM	3.13	32.0 µM	32.0 µM	128 µM	2.00 µM	4.00 µM	4.00 µM	2.00 µM	8.00 µM	2.00 µM	4.00 µM	–	–
RAKIFKKIEKVGRNVRDGIIKAGPAVAVVGQAATVVK-NH2 [Papiliocin-2A]	0.417 µM	–	107 µM	1.87	64.0 µM	128 µM	128 µM	0.250 µM	0.500 µM	0.500 µM	1.00 µM	0.500 µM	1.00 µM	1.00 µM	–	–
RFKIWKKIEKVGRNVRDGIIKA-NH2 [PapN-2F5W]	1.67 µM	120	29.3 µM	–	8.00 µM	16.0 µM	64.0 µM	1.00 µM	2.00 µM	2.00 µM	2.00 µM	4.00 µM	2.00 µM	2.00 µM	–	–
RWKIAKKIEKVGRNVRDGIIKA-NH2 [PapN-5A]	1.67 µM	120	53.3 µM	3.75	16.0 µM	16.0 µM	128 µM	1.00 µM	2.00 µM	2.00 µM	2.00 µM	8.00 µM	4.00 µM	8.00 µM	–	–
RWKIAKKIEKVGRNVRDGIIKAGPAVAVVGQAATVVK-NH2 [Papiliocin-5A]	0.417 µM	–	107 µM	1.87	64.0 µM	128 µM	128 µM	0.250 µM	0.500 µM	0.500 µM	1.00 µM	0.500 µM	1.00 µM	1.00 µM	–	–
RWKIFKKIEKVGRNVRDGIIKA-NH2 [PapN]	1.67 µM	120	26.7 µM	–	8.00 µM	8.00 µM	64.0 µM	1.00 µM	2.00 µM	2.00 µM	4.00 µM	2.00 µM	2.00 µM	2.00 µM	–	–
RWKIFKKIEKVGRNVRDGIIKAGPAVAVVGQAATVVK-NH2 [Papiliocin]	0.417 µM	–	37.3 µM	5.36	16.0 µM	32.0 µM	64.0 µM	0.250 µM	0.500 µM	0.500 µM	0.500 µM	0.500 µM	0.500 µM	1.00 µM	12.0	not toxic at their MICs
